{
  "source": "patent US20230212129A1",
  "about": "“QUINAZOLINE DERIVATIVES USEFUL AS SELECTIVE HDAC6 INHIBITORS” (AnnJi Pharmaceutical Co., Ltd., priority 2020, published 2023)",
  "key": {"HDAC6": {"biological_target": "T1, HDAC6 (Homo sapiens, UniProt Q9UBN7)", "T1 construct": "GST (N); host or cells: baculovirus expression system, Sf9 insect cells", "T1 sequence (Q9UBN7 1-1215)": "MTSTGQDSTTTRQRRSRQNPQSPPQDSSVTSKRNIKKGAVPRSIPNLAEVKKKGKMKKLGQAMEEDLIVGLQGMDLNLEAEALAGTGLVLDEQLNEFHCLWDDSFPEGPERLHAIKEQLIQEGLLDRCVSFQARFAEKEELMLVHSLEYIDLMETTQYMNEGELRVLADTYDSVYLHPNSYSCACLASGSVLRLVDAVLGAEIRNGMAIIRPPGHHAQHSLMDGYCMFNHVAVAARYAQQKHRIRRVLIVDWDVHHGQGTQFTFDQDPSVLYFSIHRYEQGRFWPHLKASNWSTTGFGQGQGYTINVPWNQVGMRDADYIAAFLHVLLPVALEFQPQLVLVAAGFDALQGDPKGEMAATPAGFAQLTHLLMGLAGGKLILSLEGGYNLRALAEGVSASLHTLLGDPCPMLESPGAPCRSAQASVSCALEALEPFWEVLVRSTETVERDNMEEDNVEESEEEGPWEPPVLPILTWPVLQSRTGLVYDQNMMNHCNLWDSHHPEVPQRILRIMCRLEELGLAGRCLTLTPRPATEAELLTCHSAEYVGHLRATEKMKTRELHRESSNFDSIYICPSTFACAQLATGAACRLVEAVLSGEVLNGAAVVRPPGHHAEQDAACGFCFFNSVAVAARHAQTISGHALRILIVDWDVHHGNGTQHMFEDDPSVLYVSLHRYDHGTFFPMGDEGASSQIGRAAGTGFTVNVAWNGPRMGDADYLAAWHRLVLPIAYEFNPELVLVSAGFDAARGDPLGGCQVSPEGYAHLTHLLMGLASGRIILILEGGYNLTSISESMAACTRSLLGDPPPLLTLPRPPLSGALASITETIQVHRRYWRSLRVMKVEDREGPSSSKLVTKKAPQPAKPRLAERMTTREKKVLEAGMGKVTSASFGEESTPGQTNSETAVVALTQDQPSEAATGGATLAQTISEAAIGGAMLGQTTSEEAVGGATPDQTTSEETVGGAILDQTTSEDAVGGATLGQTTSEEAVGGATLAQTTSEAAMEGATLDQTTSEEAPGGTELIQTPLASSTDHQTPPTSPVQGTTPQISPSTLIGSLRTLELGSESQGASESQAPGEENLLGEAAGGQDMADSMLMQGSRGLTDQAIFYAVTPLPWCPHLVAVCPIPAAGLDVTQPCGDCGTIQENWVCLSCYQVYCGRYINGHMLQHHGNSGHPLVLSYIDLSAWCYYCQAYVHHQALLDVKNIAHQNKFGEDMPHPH", "experiment": "HDAC6 activity, acetylated-AMC-labeled peptide substrate", "format": "biochemical", "experimental": "The activities of HDAC 1 and 6 were measured by using an acetylated-AMC-labeled peptide substrate, a fluorogenic peptide from p53 residues 379-382 (RHIKKAc). The proteins involved in the assay are as the followings (1) Human HIDAC1 (Genflank Accession No. NM_004964): Full length with C-terminal GST tag, MW=79.9 kDa, expressed by baculovirus expression system in SP9 cells; and (2) Human HIDAC6 (Genflank Accession No. BC069243): Full length with N-terminal GST tag, MW=159 kDa, expressed by baculovirus expression system in Sf9 cells."}, "[1]": {"tested_on": "paclitaxel-induced peripheral neuropathy", "experiment": "Paclitaxel-induced peripheral neuropathy, Von Frey test", "format": "in vivo, Sprague-Dawley (SD) rats", "experimental": "Male Sprague-Dawley (SD) rats, weighing 320±30 grams, were given paclitaxel intraperitoneally at the dose of 6 mg/kg for 5 consecutive days with a total cumulative dose of 30 mg/kg to induce chemotherapy-induced peripheral neuropathy.\nCompound 2 or vehicle was administered orally once daily for 2 weeks during the weekdays (Days 8 to 12 and 15-19). Mechanical allodynia is assessed by the manual Von Frey test once per week. The animals are given 20 to 30 minutes to acclimatize prior to the testing. The paw is pressed with a series of 8 manual Von Frey monofilaments with logarithmically incremental stiffness [3.61 (0.4 g), 3.84 (0.6 g), 4.08 (1.0 g), 4.31 (2.0 g), 4.56 (4.0 g), 4.93 (8.0 g), 5.18 (15.0 g) and (26.0 g)]. The manual Von Frey monofilament was applied perpendicularly from underneath the mesh floor to the central plantar surface with sufficient force to cause a slight buckling against the paw, and held for approximately 6-8 seconds. A positive response was noted if the paw is sharply withdrawn; ambulation is considered an ambiguous response, and in such cases, the stimulus is reapplied. The 50% paw withdrawal threshold (PWT) to a static mechanical stimulus was assessed using Von Frey filament and up-and-down method.\nVon Frey data were presented as mean±SEM (Standard Error of the Mean). Treatment groups were compared to the paclitaxel control using Student's T-test. A p value <0.05 is considered to represent a significant difference."}, "[2]": {"experiment": "Oral pharmacokinetics (Table II)", "set-up": "AUC: concentration or dose not given beside the values", "settings": "in vivo"}, "[3]": {"tested_on": "dorsal root ganglion (DRG) cells", "experiment": "DRG neurite outgrowth after paclitaxel-induced damage", "format": "cell-based, C57BL/6J mice", "settings": "0.1 μM and 1 μM, 24 hours prior to 24-hour 0.1 μM paclitaxel; FIG. 1", "experimental": "To investigate the effect of HDAC6 inhibitors in neuron protection and neuron regeneration, the recovery of dorsal root ganglion (DRG) cells post-paclitaxel injury was tested. Dorsal root ganglion was extracted from 7 week-old female C57BL/6J mice and incubated with HDAC6 inhibitors (compounds COMPOUND 33, COMPOUND 34, or COMPOUND 2) at the concentrations of 0.1 μM and 1 μM, or 100 ng/ml of BDNF, a neuronal growth factor (positive control), for 24 hours prior to a 24-hour incubation of 0.1 μM paclitaxel.\nThe neurite was stained by pIII-tubulin."}},
  "data": [
    {"smiles": "CCc1nc2cc(F)c(/C=C/C(=O)NO)cc2c(=O)n1-c1c(C)cccc1C", "note": "[Compound 2, (E)-3-(3-(2,6-dimethylphenyl)-2-ethyl-7-fluoro-4-oxo-3,4-dihydroquinazolin-6-yl)-N-hydroxyacrylamide]", "values": [
      {"measurement": "HDAC6 selectivity (A)/(B)", "setting": "HDAC6; HDAC1 IC50 / HDAC6 IC50", "result": 2585},
      {"measurement": "IC50", "setting": "HDAC6; read-out: HDAC6 IC50 (B)", "result": 2, "unit": "nM"},
      {"measurement": "duration of effect after the dosing was stopped", "setting": "[1]; 15 and 30 mg/kg", "result": "≥ 14", "unit": "days"},
      {"measurement": "sensitivity to the mechanical stimulation", "setting": "[1]; 15 and 30 mg/kg, starting from study Day 14", "result": "significantly reduced the sensitivity"},
      {"measurement": "pain-relief after dosing was stopped", "setting": "[1]; FIG. 7", "result": "maintained for at least two weeks after dosing was stopped"},
      {"measurement": "threshold of mean withdrawal force", "setting": "[1]; vs vehicle, from study Day 14, oral once daily Days 8 to 12 and 15-19", "result": "significant increase in the threshold of mean withdrawal force"},
      {"measurement": "Cmax", "setting": "[2]", "result": 1150, "unit": "ng/mL"},
      {"measurement": "AUC", "setting": "[2]; unit inferred", "result": 12500, "unit": "ng·h/mL"},
      {"measurement": "neurite outgrowth", "setting": "[3]", "result": "significantly rescued the neurite outgrowth"}
    ]}
  ]
}
